Reference: patent publication US12378194B2, “N, n-dimethyltryptamine salts and crystalline salt forms” (ATAI Therapeutics, Inc., priority 2021, dated 2025)

How the values were obtained:
[1] = Physical appearance and form stability at high relative humidity; type: physicochemical; details: for Hygroscopicity [physical appearance at high RH]: 90% RH, RT
[2] = Dynamic vapor sorption (DVS) hygroscopicity; type: physicochemical; details: for Hygroscopicity [DVS], grade in words: DVS 5% to 95% RH; for DVS wt. loss 95% to 5% RH: desorption 95% to 5% RH; for DVS wt. gain 5% to 95% RH / DVS water uptake 5% to 95% RH: sorption 5% to 95% RH; for DVS water uptake 5% to 95% RH / DVS water uptake 5% to 75% RH / DVS water uptake 75% to 95% RH: mol water per mol; for DVS hysteresis: sorption vs desorption; for DVS wt. loss 75% to 5% RH: desorption 75% to 5% RH; for DVS wt. loss 95% to 75% RH: desorption 95% to 75% RH; for DVS wt. gain 5% to 75% RH / DVS water uptake 5% to 75% RH: sorption 5% to 75% RH; for DVS wt. gain 75% to 95% RH / DVS water uptake 75% to 95% RH: sorption 75% to 95% RH
[3] = Brito-da-Costa et al 2020; cited from earlier work
[4] = free base; cited from earlier work

## CN(C)CCc1c[nH]c2ccccc12.O=C(O)/C=C/C(=O)O [DMT Fumarate Form A]
[1]; 7 days
  Hygroscopicity [physical appearance at high RH]: white solid
[2]
  Hygroscopicity [DVS], grade in words: limited
  DVS wt. loss 95% to 5% RH: 0.679% wt.
  DVS wt. gain 5% to 95% RH: 0.573% wt.
  DVS water uptake 5% to 95% RH: (0.1 mol/mol
  DVS hysteresis: hysteresis
[2]; listed as Fumarate A
  Hygroscopicity [DVS], grade in words: Limited hygroscopicity
  DVS wt. loss 95% to 5% RH: 95% to 5%: 0.679% wt. loss some
  DVS wt. gain 5% to 95% RH: 0.573 % wt.
  DVS water uptake 5% to 95% RH: 0.1 mol/mol

## CN(C)CCc1c[nH]c2ccccc12.O=C(O)C[C@H](O)C(=O)O [DMT Malate Form A]
[1]; 7 days
  Hygroscopicity [physical appearance at high RH]: white solid
[2]
  Hygroscopicity [DVS], grade in words: significant
  DVS wt. loss 75% to 5% RH: 1.37% wt. loss
  DVS wt. loss 95% to 75% RH: 9.59% wt. loss
  DVS wt. gain 5% to 75% RH: 1.21% wt. gain
  DVS water uptake 5% to 75% RH: (0.4 mol/mol
  DVS wt. gain 75% to 95% RH: 9.75% wt. gain
  DVS water uptake 75% to 95% RH: (1.7 mol/mol
[2]; listed as Malate A
  Hygroscopicity [DVS], grade in words: Significant hygroscopicity
  DVS wt. loss 75% to 5% RH: 75% to 5%: 1.37% wt loss % wt.
  DVS wt. loss 95% to 75% RH: 95% to 75%: 9.59% wt. loss
  DVS wt. gain 5% to 75% RH: 1.21 % wt.
  DVS water uptake 5% to 75% RH: 0.4 mol/mol
  DVS wt. gain 75% to 95% RH: 9.75 % wt.
  DVS water uptake 75% to 95% RH: 1.7 mol/mol

## CN(C)CCc1c[nH]c2ccccc12.O=C(O)CCC(=O)O [DMT Succinate Form A]
[1]; 7 days
  Hygroscopicity [physical appearance at high RH]: white solid
[1]; after water absorption
  Physical form after water absorption: preservation of the physical form
[2]
  Hygroscopicity [DVS], grade in words: low
  DVS wt. loss 95% to 5% RH: 0.175% wt.
  DVS wt. gain 5% to 95% RH: 0.171% wt.
  DVS water uptake 5% to 95% RH: (0.03 mol/mol
  DVS hysteresis: hysteresis
[2]; listed as DMT succinate Form A
  Hygroscopicity [DVS], grade in words: least hygroscopic
[2]; listed as Succinate A
  Hygroscopicity [DVS], grade in words: Low hygroscopicity
  DVS wt. loss 95% to 5% RH: 95% to 5%: 0.175% wt. loss some
  DVS wt. gain 5% to 95% RH: 0.171 % wt.
  DVS water uptake 5% to 95% RH: 0.03 mol/mol

## CN(C)CCc1c[nH]c2ccccc12.O=S(=O)(O)O [DMT Sulfate Form A]
[1]; 1 day
  Hygroscopicity [physical appearance at high RH]: oil/deliquesced

## CN(C)CCc1c[nH]c2ccccc12 [DMT free base, N,N-dimethyltryptamine]
[3]
  Degradation rate in solution: fast degradation rate
[4]
  Solubility in water: extremely low
